From paper PMC7728077, “Double-Headed Cationic Lipopeptides: An Emerging Class of Antimicrobials” (International Journal of Molecular Sciences, 2020)
In brackets after ≈: the same amount, converted by molar mass. Square brackets hold non-standard residues; d marks the D form. Peptide text beside a SMILES is read from it. * marks the point of attachment. Palmitoyl = CCCCCCCCCCCCCCCC(=O)*; Dab = NCC[C@H](N)C(=O)O

Experiments:
[1] = system: Candida albicans ATCC 10231; format: cell-based; conditions: ATCC 10231, 18 h
Description: (§1) Fmoc-Lys(Boc)-OH and the coupling reagents were purchased from GL Biochem (Shanghai, China). Palmitoyl Fmoc-amino acids: Fmoc-Lys(C16)-OH, Fmoc-Orn(C16)-OH, Fmoc-Dab(C16)-OH, and Fmoc-Dap(C16)-OH were acquired from Iris Biotech GmbH (Marktredwitz, Germany). The resin and solvents were purchases from Rapp Polymere (Tübingen, Germany), Merck (Darmstadt, Germany), and Avantor Performance Materials (Gliwice, Poland), respectively. The phospholipids, 1,2-dipalmitoyl-sn-glycero-3-phosphocholine (DPPC), 1,2-dipalmitoyl-sn-glycero-3-[phospho-rac-(1-glycerol)] (DPPG), 1-palmitoyl-2-oleoyl-glycero-3-phosphocholine (POPC) and 1-palmitoyl-2-oleoyl-sn-glycero-3-[phospho-rac-(1-glycerol)] (POPG), were purchased from Avanti Polar Lipids (Alabaster, AL, USA). LPS E. coli 055:B5 and phosphate buffered saline (PBS) were from Sigma-Aldrich (Steinheim, Germany). The Mueller Hinton broth was bought from BIOCORP (Warsaw, Poland) and the RPMI-1640 medium from Sigma-Aldrich (Steinheim, Germany). LIVE/DEAD™ BacLight™ Bacterial Viability Kit was obtained from Thermo Fisher Scientific (Waltham, MA, USA). Bacterial strains (Escherichia coli ATCC 25922, Pseudomonas aeruginosa ATCC 9027, Staphylococcus aureus ATCC 25923, Staphylococcus epidermidis ATCC 1922) and the fungal strain (Candida albicans ATCC 10231) were obtained from the Polish Collection of Microorganisms, Polish Academy of Science, Institute of Immunology and Experimental Therapy, Wroclaw, Poland.
(§2) Antimicrobial activity of the lipopeptides was determined according to the broth microdilution guidelines recommended by the Clinical and Laboratory Standards Institute (CLSI). Minimum inhibitory concentrations (MICs) were assumed as the lowest concentration of the peptide solution, at which the visible growth of microorganisms was inhibited. MIC values of lipopeptides against bacteria were evaluated in the Mueller–Hinton broth and against fungus in the RPMI-1640 medium. Initial inoculums of bacteria and fungus (with concentrations of 5 × 10^5 CFU/mL and 2 × 10^3 CFU/mL, respectively) were exposed to increasing concentrations of lipopeptides solutions over the range of 1–512 µg/mL. […] The 96-well plates filled with appropriate inoculums and the tested compounds were incubated for 18 h at 37 °C. Presented values are the mean of the results obtained in three independent experiments.

[2] = system: Escherichia coli ATCC 25922; format: cell-based; conditions: ATCC 25922, 18 h
Description: as §1, §2

[3] = system: Pseudomonas aeruginosa ATCC 9027; format: cell-based; conditions: ATCC 9027, 18 h
Description: as §1, §2

[4] = system: Staphylococcus aureus ATCC 25923; format: cell-based; conditions: ATCC 25923, 18 h
Description: as §1, §2

[5] = system: Staphylococcus epidermidis ATCC 1922; format: cell-based; conditions: ATCC 1922, 18 h
Description: as §1, §2

[6] = Surface tension measurements (critical aggregation concentration); format: physicochemical; conditions: Wilhelmy plate method, aqueous solution, 298 K; for Critical aggregation concentration (CAC): surface tension
Experimental: The surface tension was determined in aqueous solution at 298 K by the Wilhelmy plate method using a Force Tensiometer K100 (Krüss, Hamburg, Germany). The results were presented as a function of decimal logarithm of lipopeptide concentration. The critical aggregation concentration (CAC) was defined as the intersection of two straight lines best fitting to data points before and after reaching the CAC point.

[7] = target: POPG large unilamellar vesicles (LUVs); test: Isothermal titration calorimetry, binding to POPG; conditions: ITC, 298.15 K
Experimental: Isothermal titration calorimetry (ITC) experiments were carried out at 298.15 K using an AutoITC isothermal titration calorimeter (MicroCal Inc., GE Healthcare, Northampton, MA, USA) equipped with a 1.4491 mL sample cell and a reference cell. A typical ITC experiment involved a series of consecutive injections of 10.02 µL aliquots of the titrant (2 µL for the first injection only) into the reaction cell, at an interval of 4 min. The stirrer speed was constantly kept at 300 rpm to provide thorough mixing inside the reaction cell. Three types of ITC experiments were performed. These included lipopeptides binding to POPG, POPC, and LPS. The experiments were carried out by titration of 1.3 mM POPG or POPC LUVs into 0.05 or 0.1 mM lipopeptide solutions and the titration of 0.5 or 0.75 mM lipopeptide solution into 200 or 400 µg/mL LPS solution. The molecular mass of LPS was assumed to be 20,000 Da. To assess the heat of dilution, control experiments were performed by titration of an appropriate titrant into PBS. Final results were evaluated with an ITC module for ORIGIN 7 software, provided by MicroCal, Inc. (Northampton, MA, USA). The binding constant, stoichiometry, and enthalpy of interactions were directly determined from ITC experiment by fitting one of the built-in curve fitting models to the experimental data points. Changes in entropy (∆S°) and the Gibbs free energy (∆G°) were calculated from the following equation: ∆G^°=−RTln(55.5Ka)=∆H^°−T∆S^° where 55.5 is the molar concentration of water, R is the gas constant (1.986 cal·mol^−1·K^−1), and T is the absolute temperature.

[8] = system: S. epidermidis; test: LIVE/DEAD SYTO9/PI bacterial viability staining, fluorescence microscopy; format: cell-based, Staphylococcus epidermidis; conditions: 8, 16 and 32 µg/mL (1×, 2×, 4× MIC), regardless of concentration; at least two independent replicates
Experimental: Bacteria were inoculated in the Luria–Bertani medium and cultured with shaking at 37 °C up to the early exponential phase (A600 = 0.1). Then, 1.5 mL of the cultures were transferred to 5 mL Eppendorf tubes and treated with suitable peptides added at concentrations of 1×, 2×, or 4× MIC. For the negative control, bacteria were treated with a pure vehicle (water). Next, the cells were cultured for 1 or 2 h, as indicated. To obtain a positive control, at the end of the incubation, one portion of bacteria was collected and suspended in 200 µL of 70% ethanol for 5 min. After incubation, bacteria were collected by centrifugation (10 min, 3000× g) and washed twice with 0.85% NaCl. To determine membrane integrity, bacteria were stained with a LIVE/DEAD™ BacLight™ Bacterial Viability Kit (Thermo Fisher Scientific, Waltham, MA, USA) containing two dyes, i.e., a bacterial membrane permeable SYTO9 (green fluorescence) and an impermeable propidium iodide (red fluorescence) that stains only bacteria with damaged membrane. The staining was performed according to the manufacturer instructions. Then, bacteria were collected by centrifugation and washed twice with 0.85% NaCl. Bacteria pellets were suspended in 10 µL of 0.85% NaCl. Next, 3 µL of each suspension were spotted on agarose pads, covered with coverslips and immediately imaged using fluorescence microscope (Leica DMI4000B) with 100× objective. […]

[9] = intersection of two fitted lines
[10] = 1.3 mM POPG LUVs into lipopeptide, PBS, single transition or first line of two binding events

Row | Compound | MIC, C. albicans [1] [µg/mL] | MIC, E. coli [2] [µg/mL] | MIC, P. aeruginosa [3] [µg/mL] | MIC, S. aureus [4] [µg/mL] | MIC, S. epidermidis [5] [µg/mL] | γCAC, surface tension at the CAC point [6] [mN/m] | Critical aggregation concentration (CAC) [6] [mg/mL] | Critical aggregation concentration (CAC) [6, 9] [mM] | pKITC, POPG [7, 10] | pKITC, POPG ([7]; second line printed for the peptide (second binding event)) | membrane integrity of S. epidermidis cells (SYTO9/PI staining) [8]
1 | CCCCCCCCCCCCCCCC(=O)NCCCC[C@H](NC(=O)[C@@H](N)CCCCN)C(=O)N[C@@H](CCCCN)C(N)=O [K(KC16)K-NH2] | 8 (≈ 12.5 µM) | 8 (≈ 12.5 µM) | 16 (≈ 25 µM) | 4 (≈ 6.25 µM) | 8 (≈ 12.5 µM) | 43.0 | 3.5 | 5.4 | 5.66 ± 0.11 | – | –
2 | CCCCCCCCCCCCCCCC(=O)NCC[C@H](NC(=O)[C@@H](N)CCCCN)C(=O)N[C@@H](CCCCN)C(N)=O [K(DabC16)K-NH2] (H-Lys-[Dab](Palmitoyl)-Lys-NH2) | 16 (≈ 26.1 µM) | 8 (≈ 13.1 µM) | 16 (≈ 26.1 µM) | 8 (≈ 13.1 µM) | 8 (≈ 13.1 µM) | 39.8 | 4.0 | 6.6 | 8.09 ± 0.37 | 6.59 ± 0.26 | –
3 | CCCCCCCCCCCCCCCC(=O)NCCCC[C@H](NC(=O)[C@H](CCCCN)NC(=O)[C@@H](N)CCCCN)C(=O)N[C@@H](CCCCN)C(=O)N[C@@H](CCCCN)C(N)=O [KK(KC16)KK-NH2] (H-KKK(Palmitoyl)KK-NH2) | 16 (≈ 17.9 µM) | 4 (≈ 4.46 µM) | 16 (≈ 17.9 µM) | 8 (≈ 8.93 µM) | 8 (≈ 8.93 µM) | – | – | – | – | – | stained red
4 | CCCCCCCCCCCCCCCC(=O)NCCC[C@H](NC(=O)[C@@H](N)CCCCN)C(=O)N[C@@H](CCCCN)C(N)=O [K(OC16)K-NH2] | 8 (≈ 12.8 µM) | 8 (≈ 12.8 µM) | 8 (≈ 12.8 µM) | 8 (≈ 12.8 µM) | 8 (≈ 12.8 µM) | 39.2 | 3.7 | 5.9 | 5.79 ± 0.12 | – | –
